Reference: patent US9637491B2, “Pyrazolo[4,3-D]pyrimidines as kinase inhibitors” (Origenis GmbH, priority 2012, dated 2017)

Target: T1, SYK kinase (Homo sapiens, UniProt P43405)
T1 construct: purchased Invitrogen, Carlsbad
Assay: SYK assay (OMNIA Kinase Assay, Invitrogen)
Type: biochemical
Conditions: SYK Activities; 1 mM ATP, 10 μM Omnia Peptide Substrate Tyr 7, 30° C.
Experimental: In the assay OMNIA® KINASE ASSAY by Invitrogen Corporation (Carlsbad) the effect of invention of a compound on the phosphorylation is determined by measurement of fluorescence intensity of a chelation-enhanced fluorophore called SOX. Upon phosphorylation of the peptide by the kinase of interest, Mg2+ is chelated to form a bridge between the SOX moiety and the phosphate group that is transferred to the specific tyrosine on the peptide. The fluorescence intensity is directly proportional to the amount of peptide phosphorylation.
To the wells of an 384 well small volume plate (Greiner, Frickenhausen) are added (i) the compound under test in 5% DMSO/distilled water (2 μl), (ii) 16 μl of the master mix containing ATP, DTT, Kinase Reaction Buffer, Omina Peptide Substrate Tyr 7 resulting in a final concentration of 1 mM ATP, 0.2 mM DTT and 10 μM Peptide Substrate. The Master Mix and the assay plate was incubated to reaction temperature before the measurement (30° C.). The reaction was started with addition of (iii) 2 μl 4 μg/ml SYK kinase (Invitrogen, Carlsbad). During measurement fluorescence intensitiy readings were collected using a TECAN M1000 at a wavelength of λex 360/λem 485 nm every 30 s for 30 minutes. The reaction velocity was plotted versus the inhibitor concentration to determine the IC50 using XLFit 5.0 (IDBS, Guildford) to fit to a sigmoidal dose response curve.

| Compound | IC50 [nM] |
| --- | --- |
| CC(C)n1cc(Nc2nc(-c3ccoc3)nc3cn[nH]c23)cn1 [Example 220, 5-(furan-3-yl)-N-(1-isopropyl-1H-pyrazol-4-yl)-1H-pyrazolo[4,3-d]pyrimidin-7-amine] | < 10 |
| CC(=O)N1CCN(c2ccc(Nc3nc(-c4ccon4)nc4cn[nH]c34)cc2)CC1 [Example 72, 1-(4-(4-((5-(isoxazol-3-yl)-1H-pyrazolo[4,3-d]pyrimidin-7-yl)amino)phenyl)piperazin-1-yl)ethan-1-one] | 100 to 1000 |
| FCCn1cc(Nc2nc(-c3ccoc3)nc3cn[nH]c23)cn1 [Example 361, N-(1-(2-fluoroethyl)-1H-pyrazol-4-yl)-5-(furan-3-yl)-1H-pyrazolo[4,3-d]pyrimidin-7-amine] | 10 to 100 |
| COCCn1cc(Nc2nc(-c3cccc(NS(C)(=O)=O)c3)nc3cn[nH]c23)cn1 [Example 265, N-(3-(7-((1-(2-methoxyethyl)-1H-pyrazol-4-yl)amino)-1H-pyrazolo[4,3-d]pyrimidin-5-yl)phenyl)methanesulfonamide] | 100 to 1000 |
| COCCn1cc(Nc2nc(-c3cnn(C)c3)nc3cn[nH]c23)cn1 [Example 188, N-(1-(2-methoxyethyl)-1H-pyrazol-4-yl)-5-(1-methyl-1H-pyrazol-4-yl)-1H-pyrazolo[4,3-d]pyrimidin-7-amine] | 100 to 1000 |
| CC(=O)N1CCN(c2ccc(Nc3nc(-c4ccccc4F)nc4cn[nH]c34)cc2)CC1 [Example 26, 1-(4-(4-((5-(2-fluorophenyl)-1H-pyrazolo[4,3-d]pyrimidin-7-yl)amino)phenyl)piperazin-1-yl)ethan-1-one] | 100 to 1000 |
| OCCn1cc(Nc2nc(-c3ccc4cn[nH]c4c3)nc3cn[nH]c23)cn1 [Example 476, 2-(4-((5-(1H-indazol-6-yl)-1H-pyrazolo[4,3-d]pyrimidin-7-yl)amino)-1H-pyrazol-1-yl)ethan-1-ol] | 10 to 100 |
| COc1ccc(Nc2nc(C3CC3)nc3cn[nH]c23)cc1OC [Example 19, 5-cyclopropyl-N-(3,4-dimethoxyphenyl)-1H-pyrazolo[4,3-d]pyrimidin-7-amine] | 10 to 100 |
| Cc1ccc(-c2nc(Nc3ccc(N4CCOCC4)cc3)c3[nH]ncc3n2)s1 [Example 9, 5-(5-methylthiophen-2-yl)-N-(4-morpholinophenyl)-1H-pyrazolo[4,3-d]pyrimidin-7-amine] | 10 to 100 |
| c1nn(C2CCNC2)cc1Nc1nc(C2C3CCCCC32)nc2cn[nH]c12 (centres unmarked) [Example 474, 5-(bicyclo[4.1.0]heptan-7-yl)-N-(1-(pyrrolidin-3-yl)-1H-pyrazol-4-yl)-1H-pyrazolo[4,3-d]pyrimidin-7-amine] | 100 to 1000 |
| COCCn1cc(Nc2nc(-c3ccoc3)nc3cn[nH]c23)cn1 [Example 199, 5-(furan-3-yl)-N-(1-(2-methoxyethyl)-1H-pyrazol-4-yl)-1H-pyrazolo[4,3-d]pyrimidin-7-amine] | 100 to 1000 |
| CC(C)(C)N1CCC(n2cc(Nc3nc(C4CC4)nc4cn[nH]c34)cn2)CC1 [Example 328, N-(1-(1-(tert-butyl)piperidin-4-yl)-1H-pyrazol-4-yl)-5-cyclopropyl-1H-pyrazolo[4,3-d]pyrimidin-7-amine] | < 10 |
| c1cc(N2CCOCC2)ccc1Nc1nc(C2CC2)nc2cn[nH]c12 [Example 18, 5-cyclopropyl-N-(4-morpholinophenyl)-1H-pyrazolo[4,3-d]pyrimidin-7-amine] | < 10 |
| Cc1c(Nc2nc(C3CC3)nc3cn[nH]c23)cnn1C(C)C [Example 287, 5-cyclopropyl-N-(1-isopropyl-5-methyl-1H-pyrazol-4-yl)-1H-pyrazolo[4,3-d]pyrimidin-7-amine] | 100 to 1000 |
| COc1cc(Nc2nc(-c3cccc(NS(C)(=O)=O)c3)nc3cn[nH]c23)ccc1N1CCOCC1 [Example 41, N-(3-(7-((3-methoxy-4-morpholinophenyl)amino)-1H-pyrazolo[4,3-d]pyrimidin-5-yl)phenyl)methanesulfonamide] | 100 to 1000 |
| Clc1c(Nc2nc(C3CCC3)nc3cn[nH]c23)cnn1C1CCNCC1 [Example 364, N-(5-chloro-1-(piperidin-4-yl)-1H-pyrazol-4-yl)-5-cyclobutyl-1H-pyrazolo[4,3-d]pyrimidin-7-amine] | 100 to 1000 |
| CC(C)(C#N)n1cc(Nc2nc(C3CCC3)nc3cn[nH]c23)cn1 [Example 225, 2-(4-((5-cyclobutyl-1H-pyrazolo[4,3-d]pyrimidin-7-yl)amino)-1H-pyrazol-1-yl)-2-methylpropanenitrile] | 100 to 1000 |
| CC(=O)N1CCC(n2cc(Nc3nc(C(C)C)nc4cn[nH]c34)cn2)CC1 [Example 186, 1-(4-(4-((5-isopropyl-1H-pyrazolo[4,3-d]pyrimidin-7-yl)amino)-1H-pyrazol-1-yl)piperidin-1-yl)ethan-1-one] | 100 to 1000 |
| OCCn1cc(Nc2nc(-c3ccoc3)nc3cn[nH]c23)cn1 [Example 242, 2-(4-((5-(furan-3-yl)-1H-pyrazolo[4,3-d]pyrimidin-7-yl)amino)-1H-pyrazol-1-yl)ethan-1-ol] | < 10 |
| COCCn1cc(Nc2nc(-c3ccc4cn[nH]c4c3)nc3cn[nH]c23)cn1 [Example 131, 5-(1H-indazol-6-yl)-N-(1-(2-methoxyethyl)-1H-pyrazol-4-yl)-1H-pyrazolo[4,3-d]pyrimidin-7-amine] | 10 to 100 |
| CCCc1nc(Nc2ccc(N3CCOCC3)cc2)c2[nH]ncc2n1 [Example 386, N-(4-morpholinophenyl)-5-propyl-1H-pyrazolo[4,3-d]pyrimidin-7-amine] | 100 to 1000 |
| c1cc(-c2nc(Nc3cnn(C4CCCOC4)c3)c3[nH]ncc3n2)co1 (centres unmarked) [Example 483, 5-(furan-3-yl)-N-(1-(tetrahydro-2H-pyran-3-yl)-1H-pyrazol-4-yl)-1H-pyrazolo[4,3-d]pyrimidin-7-amine] | 10 to 100 |
| Cn1cc(-c2nc(Nc3cnn(C4CCOCC4)c3)c3[nH]ncc3n2)cn1 [Example 122, 5-(1-methyl-1H-pyrazol-4-yl)-N-(1-(tetrahydro-2H-pyran-4-yl)-1H-pyrazol-4-yl)-1H-pyrazolo[4,3-d]pyrimidin-7-amine] | 10 to 100 |
| CC(C)C(C)n1cc(Nc2nc(C3CC3)nc3cn[nH]c23)cn1 (centres unmarked) [Example 498, 5-cyclopropyl-N-(1-(3-methylbutan-2-yl)-1H-pyrazol-4-yl)-1H-pyrazolo[4,3-d]pyrimidin-7-amine] | 10 to 100 |
| OCCn1cc(Nc2nc(-c3nc4ccccc4o3)nc3cn[nH]c23)cn1 [Example 444, 2-(4-((5-(benzo[d]oxazol-2-yl)-1H-pyrazolo[4,3-d]pyrimidin-7-yl)amino)-1H-pyrazol-1-yl)ethan-1-ol] | 100 to 1000 |
| COCCn1cc(Nc2nc(C3CC3)nc3cn[nH]c23)cn1 [Example 194, 5-cyclopropyl-N-(1-(2-methoxyethyl)-1H-pyrazol-4-yl)-1H-pyrazolo[4,3-d]pyrimidin-7-amine] | 100 to 1000 |
| FC(F)(F)Cn1cc(Nc2nc(C3CC3)nc3cn[nH]c23)cn1 [Example 374, 5-cyclopropyl-N-(1-(2,2,2-trifluoroethyl)-1H-pyrazol-4-yl)-1H-pyrazolo[4,3-d]pyrimidin-7-amine] | 10 to 100 |
| CC(C)Cn1cc(Nc2nc(C3CCC3)nc3cn[nH]c23)cn1 [Example 234, 5-cyclobutyl-N-(1-isobutyl-1H-pyrazol-4-yl)-1H-pyrazolo[4,3-d]pyrimidin-7-amine] | 100 to 1000 |
| Cc1ccsc1-c1nc(Nc2ccc(N3CCOCC3)cc2)c2[nH]ncc2n1 [Example 52, 5-(3-methylthiophen-2-yl)-N-(4-morpholinophenyl)-1H-pyrazolo[4,3-d]pyrimidin-7-amine] | 10 to 100 |
